The values below come from US7829665B2 (priority 2005, dated 2010).

The target of test [1] is T1, full-length NS3/NS4A-2 (HCV NS3 protease) (Hepatitis C virus genotype 1a, UniProt P27958).
T1 construct: Recombinant E. coli or Baculovirus full-length NS3 was diluted to 3.33 μM with assay buffer; made in house; host or cells: E. coli or baculovirus (BV) expression system
As to the kind of experiment: NS3-NS4 protease assay / NS3 inhibition assay (RETS1 substrate, fluorescence kinetic read). The test is classed as biochemical. The essentials:
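Full-length NS3 from E. coli (2 nM in assay) or baculovirus (3 nM) was precomplexed with excess NS4A-2 peptide, then preincubated 10 min at room temperature with serially diluted compounds starting at 50 microM. Reaction was started with RETS1 substrate at 8 μM before addition and read kinetically for 30 min (ex 335/em 495 nm). Four-parameter IC50s were converted to Ki by Cheng-Prusoff using Km 2.03 μM (E. coli) or 1.74 μM (BV).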

Test [2] relates to HCV sub-genomic replicon in GS4.3 cells (HuH-7 hepatoma cells). Kind of test: Quantitation by ELISA of Neomycin phosphotransferase II (NPTII) in the HCV sub-genomic replicon, GS4.3. It is filed as cell-based, hepatitis C virus. The note with it: Hepatitis C virus, Huh-7; GS4.3 cells, 72 h incubation, NPTII ELISA; read-out: Replicon EC50. The procedure, abridged: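 HuH-7 GS4.3 cells carrying HCV sub-genomic replicon 1377/NS3-3′, treated 72 h at 37 °C without G418 with 3-fold dilutions from 10 μM to 56 pM (1% DMSO). NPTII in cell lysates measured by direct ELISA with TMB readout at 450 nm. EC50 from 4-parameter fit of percent DMSO-control signal.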
Background: In an ELISA, binding on a coated surface is turned into a signal by an enzyme label.

[3] abbreviates: recombinant E. coli or Baculovirus full-length NS3 with NS4A-2, read-out: NS3-NS4 IC50.

Like-named read-outs stand apart in the source and are kept apart here.

T1 sequence (P27958 1027-1657): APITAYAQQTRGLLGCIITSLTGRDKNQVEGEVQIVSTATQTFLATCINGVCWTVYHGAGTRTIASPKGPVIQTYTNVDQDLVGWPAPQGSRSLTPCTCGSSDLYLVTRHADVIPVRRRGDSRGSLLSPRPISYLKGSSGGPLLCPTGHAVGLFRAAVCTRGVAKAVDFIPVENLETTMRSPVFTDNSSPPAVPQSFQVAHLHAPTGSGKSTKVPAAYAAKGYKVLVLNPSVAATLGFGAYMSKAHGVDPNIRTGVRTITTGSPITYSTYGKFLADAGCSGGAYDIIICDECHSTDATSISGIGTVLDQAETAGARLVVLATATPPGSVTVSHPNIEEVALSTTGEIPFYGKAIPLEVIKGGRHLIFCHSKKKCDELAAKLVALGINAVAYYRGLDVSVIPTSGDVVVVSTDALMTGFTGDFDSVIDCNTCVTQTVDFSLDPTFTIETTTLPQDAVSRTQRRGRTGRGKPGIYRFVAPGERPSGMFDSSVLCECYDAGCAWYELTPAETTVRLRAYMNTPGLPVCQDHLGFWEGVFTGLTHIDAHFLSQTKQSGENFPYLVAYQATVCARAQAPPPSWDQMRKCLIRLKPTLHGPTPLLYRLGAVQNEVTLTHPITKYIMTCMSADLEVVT

The IC50 is the concentration that inhibits the measured activity by half. By EC50 is commonly meant the concentration that produces a half-maximal response. Regarding `CC(C)(C)OC(=O)N[C@H]1CCCCC/C=C\[C@@H]2C[C@@]2(C(=O)NS(=O)(=O)c2ccc(Cl)s2)NC(=O)[C@@H]2C[C@@H](OC(=O)N3Cc4cccc(Cl)c4C3)CN2C1=O` [Compound 164], in test [1] (setting [3]), the IC50 was below 100 nM. In test [2], the EC50 was below 100 nM.

`CCOC1(S(=O)(=O)NC(=O)[C@@]23C[C@H]2/C=C\CCCCC[C@H](NC(=O)OC(C)(C)C)C(=O)N2C[C@H](OC(=O)N4Cc5cccc(Cl)c5C4)C[C@H]2C(=O)N3)CC1` [Compound 165]: the IC50 in test [1] (setting [3]) was below 100 nM. In test [2], the EC50 is below 100 nM.

As for `CC(C)(C)OC(=O)N[C@H]1CCCCC/C=C\[C@@H]2C[C@@]2(C(=O)NS(=O)(=O)c2cccs2)NC(=O)[C@@H]2C[C@@H](OC(=O)N3Cc4cccc(Cl)c4C3)CN2C1=O` [Compound 166], the half-maximal inhibitory concentration (IC50) in test [1] (setting [3]) is below 100 nM. Moreover, the EC50 in test [2] was below 100 nM.

`CCOC1(S(=O)(=O)NC(=O)[C@@]23C[C@H]2/C=C\CCCCC[C@H](N)C(=O)N2C[C@H](OC(=O)N4Cc5cccc(Cl)c5C4)C[C@H]2C(=O)N3)CC1` [Compound 167] showed a half-maximal inhibitory concentration (IC50) in test [1] below 100 nM. For the same compound, in test [2], the EC50 is below 10000 nM.

As to `N[C@H]1CCCCC/C=C\[C@@H]2C[C@@]2(C(=O)NS(=O)(=O)c2ccc(Cl)s2)NC(=O)[C@@H]2C[C@@H](OC(=O)N3Cc4cccc(Cl)c4C3)CN2C1=O` [Compound 168], the half-maximal inhibitory concentration (IC50) in test [1] is below 100 nM. For the same compound, the EC50 in test [2] is below 10000 nM.

Regarding `N[C@H]1CCCCC/C=C\[C@@H]2C[C@@]2(C(=O)NS(=O)(=O)c2cccs2)NC(=O)[C@@H]2C[C@@H](OC(=O)N3Cc4cccc(Cl)c4C3)CN2C1=O` [Compound 169], the concentration for half-maximal inhibition (IC50) in test [1] is below 100 nM. In test [2], the half-maximal effective concentration (EC50) is below 10000 nM.

For the compound `CC(C)(C)OC(=O)N[C@H]1CCCCC/C=C\[C@@H]2C[C@@]2(C(=O)NS(=O)(=O)C2CC2)NC(=O)[C@@H]2C[C@@H](OC(=O)N3Cc4cccc(C(F)(F)F)c4C3)CN2C1=O` [Compound 170], the IC50 in test [1] (setting [3]) is below 100 nM. Besides, the EC50 in test [2] is below 100 nM.

`COCC1(S(=O)(=O)NC(=O)[C@@]23C[C@H]2/C=C\CCCCC[C@H](NC(=O)OC2CCCC2)C(=O)N2C[C@H](OC(=O)N4Cc5cccc(F)c5C4)C[C@H]2C(=O)N3)CC1` [Compound 171]: in test [1] (setting [3]), the IC50 was below 100 nM. For the same compound, the half-maximal effective concentration (EC50) in test [2] is below 100 nM.

In the case of `CC(C)(C)OC(=O)N[C@H]1CCCCC/C=C\[C@@H]2C[C@@]2(C(=O)NS(=O)(=O)c2cc(Cl)sc2Cl)NC(=O)[C@@H]2C[C@@H](OC(=O)N3Cc4cccc(Cl)c4C3)CN2C1=O` [Compound 172], the concentration for half-maximal inhibition (IC50) in test [1] (setting [3]) is below 100 nM. In addition, the concentration giving a half-maximal response (EC50) in test [2] is below 100 nM.

Consider `O=C(N[C@H]1CCCCC/C=C\[C@@H]2C[C@@]2(C(=O)NS(=O)(=O)c2cc(Cl)sc2Cl)NC(=O)[C@@H]2C[C@@H](OC(=O)N3Cc4cccc(F)c4C3)CN2C1=O)OC1CCCC1` [Compound 173], for which the IC50 in test [1] (setting [3]) is below 100 nM. In addition, the EC50 in test [2] is below 100 nM.

Turning to `O=C(N[C@H]1CCCCC/C=C\[C@@H]2C[C@@]2(C(=O)NS(=O)(=O)c2cc(Cl)sc2Cl)NC(=O)[C@@H]2C[C@@H](OC(=O)N3Cc4cccc(Cl)c4C3)CN2C1=O)OC1CCCC1` [Compound 174], the IC50 in test [1] (setting [3]) was below 100 nM. Besides, the 50% effective concentration (EC50) in test [2] is below 100 nM.

For `CN1CCN(c2ccc3c(c2)CN(C(=O)O[C@@H]2C[C@H]4C(=O)N[C@]5(C(=O)O)C[C@H]5/C=C\CCCCC[C@H](NC(=O)OC(C)(C)C)C(=O)N4C2)C3)CC1` [Compound 175], the IC50 in test [1] (setting [3]) was below 100 nM. Also, in test [2], the EC50 was above 10000 nM.

In the case of `CC(C)(C)OC(=O)N[C@H]1CCCCC/C=C\[C@@H]2C[C@@]2(C(=O)O)NC(=O)[C@@H]2C[C@@H](OC(=O)N3Cc4ccc(N5CCOCC5)cc4C3)CN2C1=O` [Compound 176], the IC50 in test [1] (setting [3]) was below 100 nM. Also, the EC50 in test [2] is above 10000 nM.

Take `CC(C)(C)NC(=O)N[C@H]1CCCCC/C=C\[C@@H]2C[C@@]2(C(=O)O)NC(=O)C2C[C@@H](OC(=O)N3Cc4cccc(Cl)c4C3)CN2C1=O` (stereo partly shown) [Compound 177]: the IC50 in test [1] (setting [3]) was below 100 nM. Also, the 50% effective concentration (EC50) in test [2] is below 10000 nM.

Take `O=C(NC1CCCC1)N[C@H]1CCCCC/C=C\[C@@H]2C[C@@]2(C(=O)NS(=O)(=O)C2CC2)NC(=O)C2C[C@@H](OC(=O)N3Cc4cccc(F)c4C3)CN2C1=O` (stereo partly shown) [Compound 178]: in test [1] (setting [3]), the IC50 is below 100 nM. The concentration giving a half-maximal response (EC50) in test [2] was below 100 nM.

Regarding `O=C(NC1CCCC1)N[C@H]1CCCCC/C=C\[C@@H]2C[C@@]2(C(=O)NS(=O)(=O)C2CC2)NC(=O)C2C[C@@H](OC(=O)N3Cc4cccc(Cl)c4C3)CN2C1=O` (stereo partly shown) [Compound 180], the IC50 in test [1] (setting [3]) was below 100 nM. Further, in test [2], the concentration giving a half-maximal response (EC50) was below 100 nM.

As for `O=C(N[C@H]1CCCCC/C=C\[C@@H]2C[C@@]2(C(=O)O)NC(=O)C2C[C@@H](OC(=O)N3Cc4cccc(F)c4C3)CN2C1=O)c1cnccn1` (stereo partly shown) [Compound 181], in test [1] (setting [3]), the half-inhibitory concentration (IC50) was below 1000 nM. In addition, the EC50 in test [2] is below 10000 nM.

As to `CC(C)Nc1c(N[C@H]2CCCCC/C=C\[C@@H]3C[C@@]3(C(=O)NS(=O)(=O)C3CC3)NC(=O)[C@@H]3C[C@@H](OC(=O)N4Cc5cccc(F)c5C4)CN3C2=O)c(=O)c1=O` [Compound 184], the IC50 in test [1] (setting [3]) is below 100 nM. Moreover, in test [2], the EC50 is below 10000 nM.

Consider `CN(C)c1c(N[C@H]2CCCCC/C=C\[C@@H]3C[C@@]3(C(=O)NS(=O)(=O)C3CC3)NC(=O)[C@@H]3C[C@@H](OC(=O)N4Cc5cccc(F)c5C4)CN3C2=O)c(=O)c1=O` [Compound 185], for which the IC50 in test [1] (setting [3]) was below 100 nM. For the same compound, in test [2], the EC50 is below 10000 nM.

Turning to `O=C(N[C@H]1CCCCC/C=C\[C@@H]2C[C@@]2(C(=O)NS(=O)(=O)C2CCCC2)NC(=O)[C@@H]2C[C@@H](OC(=O)N3CCc4ccccc4C3)CN2C1=O)OC1CCCC1` [Compound 186], the IC50 in test [1] (setting [3]) is below 100 nM. In addition, in test [2], the EC50 was below 1000 nM.

For the compound `O=C(N[C@H]1CCCCC/C=C\[C@@H]2C[C@@]2(C(=O)NS(=O)(=O)C2CCCCC2)NC(=O)[C@@H]2C[C@@H](OC(=O)N3CCc4ccccc4C3)CN2C1=O)OC1CCCC1` [Compound 189], the 50% inhibitory concentration (IC50) in test [1] (setting [3]) is below 100 nM. Further, the EC50 in test [2] is below 1000 nM.

For the compound `O=C(N[C@H]1CCCCC/C=C\[C@@H]2C[C@@]2(C(=O)NS(=O)(=O)c2cccs2)NC(=O)[C@@H]2C[C@@H](OC(=O)N3CCc4ccccc4C3)CN2C1=O)OC1CCCC1` [Compound 190], the IC50 in test [1] (setting [3]) is below 100 nM. The concentration giving a half-maximal response (EC50) in test [2] is below 100 nM.

In the case of `O=C1N[C@]2(C(=O)NS(=O)(=O)C3CC3)C[C@H]2/C=C\CCCCC[C@H](Nc2c(N3CCC3)c(=O)c2=O)C(=O)N2C[C@H](OC(=O)N3Cc4cccc(F)c4C3)C[C@@H]12` [Compound 193], the 50% inhibitory concentration (IC50) in test [1] (setting [3]) was below 100 nM. The EC50 in test [2] was below 1000 nM.

Take `CCC(C)(C)Nc1c(N[C@H]2CCCCC/C=C\[C@@H]3C[C@@]3(C(=O)NS(=O)(=O)C3CC3)NC(=O)[C@@H]3C[C@@H](OC(=O)N4Cc5cccc(F)c5C4)CN3C2=O)c(=O)c1=O` [Compound 194]: the IC50 in test [1] (setting [3]) was below 100 nM. The EC50 in test [2] is below 10000 nM.

As to `O=C1N[C@]2(C(=O)NS(=O)(=O)C3CC3)C[C@H]2/C=C\CCCCC[C@H](Nc2c(NCC(F)(F)F)c(=O)c2=O)C(=O)N2C[C@H](OC(=O)N3Cc4cccc(F)c4C3)C[C@@H]12` [Compound 196], in test [1] (setting [3]), the 50% inhibitory concentration (IC50) is below 100 nM. Besides, the EC50 in test [2] was below 10000 nM.

On to `O=C1N[C@]2(C(=O)NS(=O)(=O)C3CC3)C[C@H]2/C=C\CCCCC[C@H](Nc2c(N3CCCC3)c(=O)c2=O)C(=O)N2C[C@H](OC(=O)N3Cc4cccc(F)c4C3)C[C@@H]12` [Compound 197], for which the half-maximal inhibitory concentration (IC50) in test [1] (setting [3]) is below 100 nM. Also, the EC50 in test [2] is below 10000 nM.
